Reference: US9302999B2, “Substituted triazoles as herbicides” (E. I. DU PONT DE NEMOURS AND COMPANY, priority 2012, dated 2016)

Tests used:
Assay type in all cases: in vivo
kochia (Kochia scoparia) = assay: Test F pre-/postemergence: kochia; details: Preemergence
Procedure, shortened: (§1)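 Visual response scores, 0 meaning no effect and 100 complete control, were assigned against untreated controls 14 to 21 days after treatment. Test chemicals in a surfactant-containing non-phytotoxic solvent were applied preemergence to seeded silt loam soil or postemergence to 2–18 cm plants in peat-based medium.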

[1] = tested on: arrowleaf sida (Sida rhombifolia); assay: Test F pre-/postemergence: arrowleaf sida
Procedure, shortened: as §1

[2] = tested on: foxtail, green (green foxtail, Setaria viridis); assay: Test D pre-/postemergence: foxtail, green
Procedure, shortened: (§2)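 Visual control ratings (0–100) after 14–21 days, controlled environment. Preemergence on silt loam; postemergence on 2–18 cm plants.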

[3] = tested on: windgrass (Apera spica-venti); assay: Test D pre-/postemergence: windgrass
Procedure, shortened: as §2

[4] = tested on: oilseed rape (Brassica napus); assay: Test D pre-/postemergence: oilseed rape
Excerpt: Seeds of plant species selected from bluegrass (annual bluegrass, Poa annua), blackgrass (Alopecurus myosuroides), canarygrass (Phalaris minor), chickweed (common chickweed, Stellaria media), galium (catchweed bedstraw, Galium aparine), bromegrass, downy (downy bromegrass, Bromus tectorum), field poppy (Papaver rhoeas), field violet (Viola arvensis), foxtail, green (green foxtail, Setaria viridis), deadnettle (henbit deadnettle, Lamium amplexicaule), ryegrass, Italian (Italian ryegrass, Lolium multiflorum), kochia (Kochia scoparia), lambsquarters (Chenopodium album), oilseed rape (Brassica napus), pigweed (Amaranthus retroflexus), Russian thistle (Salsola iberica), chamomile (scentless chamomile, Matricaria inodora), speedwell (bird's-eye speedwell, Veronica persica), barley, spring (spring barley, Hordeum vulgare), wheat, spring (spring wheat, Triticum aestivum), buckwheat, wild (wild buckwheat, Polygonum convolvulus), mustard, wild (wild mustard, Sinapis arvensis), oat, wild (wild oat, Avena fatua), radish, wild (wild radish, Raphanus raphanistrum), windgrass (Apera spica-venti), barley, winter (winter barley, Hordeum vulgare), and wheat, winter (winter wheat, Triticum aestivum) were planted into a silt loam soil and treated preemergence with test chemicals formulated in a non-phytotoxic solvent mixture which included a surfactant. At the same time, these same crop and weed species were planted in pots containing the planting medium comprising spaghnum peat moss, vermiculite, wetting agent and starter nutrients and treated with postemergence applications of the test chemicals formulated in the same manner. Plants ranged in height from 2 to 18 cm (1- to 4-leaf stage).
Treated plants and controls were maintained in a controlled growth environment for 14 to 21 days after which time all species were compared to controls and visually evaluated. Plant response ratings, summarized in Table D, are based on a scale of 0 to 100 where 0 is no effect and 100 is complete control. A dash (-) response means no test result.

[5] = tested on: goosegrass (Eleusine indica); assay: Test F pre-/postemergence: goosegrass; details: Preemergence
Procedure, shortened: as §1

[6] = 16 g ai/ha, scale 0 to 100, 0 no effect, 100 complete control
[7] = 31 g ai/ha, scale 0 to 100, 0 no effect, 100 complete control
[8] = Preemergence, 16 g ai/ha, scale 0 to 100, 0 no effect, 100 complete control
[9] = Preemergence, 31 g ai/ha, scale 0 to 100, 0 no effect, 100 complete control
[10] = Preemergence, 62 g ai/ha, scale 0 to 100
[11] = Preemergence, 125 g ai/ha, scale 0 to 100
[12] = Preemergence, 250 g ai/ha, scale 0 to 100
[13] = Postemergence, 31 g ai/ha, scale 0 to 100 (0 no effect, 100 complete control)
[14] = Postemergence, 62 g ai/ha, scale 0 to 100 (0 no effect, 100 complete control)
[15] = Postemergence, 125 g ai/ha, scale 0 to 100, 0 no effect, 100 complete control
[16] = Postemergence, 16 g ai/ha, scale 0 to 100
[17] = Postemergence, 31 g ai/ha, scale 0 to 100
[18] = Postemergence, 125 g ai/ha, scale 0 to 100
[19] = 8 g ai/ha, scale 0 to 100, 0 no effect, 100 complete control

Cc1nn(-c2ccc(C(F)(F)F)c(F)c2)nc1Oc1ccnc(C(F)(F)F)c1 [Compound 148]
Plant response rating, Kochia (kochia (Kochia scoparia); [6]): 0
Plant response rating, Kochia (kochia (Kochia scoparia); [7]): 90
Plant response rating, Kochia (kochia (Kochia scoparia); 62 g ai/ha, scale 0 to 100): 90
Plant response rating, Kochia (kochia (Kochia scoparia); 125 g ai/ha, scale 0 to 100): 95
Plant response rating, Kochia (kochia (Kochia scoparia); 250 g ai/ha, scale 0 to 100): 98
Plant response rating, Arrowleaf Sida [1, 8]: 0
Plant response rating, Arrowleaf Sida [1, 9]: 0
Plant response rating, Arrowleaf Sida [1, 10]: 0
Plant response rating, Arrowleaf Sida [1, 11]: 0
Plant response rating, Arrowleaf Sida [1, 12]: 0
Plant response rating: Foxtail, Green [2, 13]: 15
Plant response rating: Foxtail, Green [2, 14]: 50
Plant response rating: Foxtail, Green [2, 15]: 60
Plant response rating, Foxtail, Green [2, 16]: 15
Plant response rating, Foxtail, Green [2, 8]: 15
Plant response rating, Foxtail, Green [2, 9]: 50
Plant response rating, Foxtail, Green [2, 10]: 70
Plant response rating, Foxtail, Green [2, 11]: 100
Plant response rating: Windgrass [3, 14]: 60
Plant response rating: Windgrass [3, 15]: 80
Plant response rating, Windgrass [3, 16]: 15
Plant response rating, Windgrass [3, 17]: 30
Plant response rating, Windgrass [3, 8]: 5
Plant response rating, Windgrass [3, 9]: 10
Plant response rating, Windgrass [3, 10]: 35
Plant response rating, Windgrass [3, 11]: 90
Plant response rating: Oilseed Rape [4, 13]: 35
Plant response rating: Oilseed Rape [4, 14]: 80
Plant response rating: Oilseed Rape [4, 15]: 100
Plant response rating, Oilseed Rape [4, 16]: 30
Plant response rating, Oilseed Rape [4, 8]: 5
Plant response rating, Oilseed Rape [4, 9]: 0
Plant response rating, Oilseed Rape [4, 10]: 10
Plant response rating, Oilseed Rape [4, 11]: 20
Plant response rating, Goosegrass [5, 6]: 25
Plant response rating, Goosegrass [5, 7]: 98
Plant response rating, Goosegrass ([5]; 62 g ai/ha, scale 0 to 100): 100
Plant response rating, Goosegrass ([5]; 125 g ai/ha, scale 0 to 100): 100
Plant response rating, Goosegrass ([5]; 250 g ai/ha, scale 0 to 100): 100

CCc1nn(-c2ccc(C(F)(F)F)cc2)nc1Cc1ccnc(C(F)(F)F)c1 [Compound 155]
Plant response rating, Kochia (kochia (Kochia scoparia); 62 g ai/ha, scale 0 to 100): 70
Plant response rating, Kochia (kochia (Kochia scoparia); 125 g ai/ha, scale 0 to 100): 98
Plant response rating, Kochia (kochia (Kochia scoparia); 250 g ai/ha, scale 0 to 100): 100
Plant response rating, Arrowleaf Sida [1, 10]: 10
Plant response rating, Arrowleaf Sida [1, 11]: 40
Plant response rating, Arrowleaf Sida [1, 12]: 75
Plant response rating: Foxtail, Green [2, 13]: 15
Plant response rating: Foxtail, Green [2, 14]: 70
Plant response rating: Foxtail, Green [2, 15]: 80
Plant response rating, Foxtail, Green [2, 16]: 20
Plant response rating, Foxtail, Green [2, 8]: 20
Plant response rating, Foxtail, Green [2, 9]: 65
Plant response rating, Foxtail, Green [2, 10]: 85
Plant response rating, Foxtail, Green [2, 11]: 100
Plant response rating: Windgrass [3, 14]: 80
Plant response rating: Windgrass [3, 15]: 95
Plant response rating, Windgrass [3, 16]: 20
Plant response rating, Windgrass [3, 17]: 70
Plant response rating, Windgrass [3, 8]: 5
Plant response rating, Windgrass [3, 9]: 10
Plant response rating, Windgrass [3, 10]: 85
Plant response rating, Windgrass [3, 11]: 100
Plant response rating: Oilseed Rape [4, 13]: 100
Plant response rating: Oilseed Rape [4, 14]: 100
Plant response rating: Oilseed Rape [4, 15]: 100
Plant response rating, Oilseed Rape [4, 16]: 85
Plant response rating, Oilseed Rape [4, 8]: 0
Plant response rating, Oilseed Rape [4, 9]: 5
Plant response rating, Oilseed Rape [4, 10]: 100
Plant response rating, Oilseed Rape [4, 11]: 100
Plant response rating, Goosegrass ([5]; 62 g ai/ha, scale 0 to 100): 100
Plant response rating, Goosegrass ([5]; 125 g ai/ha, scale 0 to 100): 100
Plant response rating, Goosegrass ([5]; 250 g ai/ha, scale 0 to 100): 100

CCCc1nn(-c2ccc(F)c(F)c2)nc1Oc1ccnc(C(F)(F)F)c1 [Compound 172]
Plant response rating, Kochia (kochia (Kochia scoparia); [7]): 20
Plant response rating, Kochia (kochia (Kochia scoparia); 125 g ai/ha, scale 0 to 100): 100
Plant response rating, Kochia (kochia (Kochia scoparia); 250 g ai/ha, scale 0 to 100): 100
Plant response rating, Arrowleaf Sida ([1]; Postemergence, 250 g ai/ha, scale 0 to 100): 100
Plant response rating, Arrowleaf Sida [1, 17]: 65
Plant response rating, Arrowleaf Sida [1, 18]: 90
Plant response rating, Arrowleaf Sida [1, 9]: 30
Plant response rating, Arrowleaf Sida [1, 11]: 95
Plant response rating, Arrowleaf Sida [1, 12]: 100
Plant response rating, Goosegrass [5, 7]: 98
Plant response rating, Goosegrass ([5]; 125 g ai/ha, scale 0 to 100): 100
Plant response rating, Goosegrass ([5]; 250 g ai/ha, scale 0 to 100): 100

CCOc1nn(-c2ccc(F)cc2)nc1Cc1ccnc(C(F)(F)F)c1 [Compound 196, 4-[[5-ethoxy-2-(4-fluorophenyl)-2H-1,2,3-triazol-4-yl]methyl]-2-(trifluoromethyl)pyridine]
Plant response rating, Kochia (kochia (Kochia scoparia); [19]): 5
Plant response rating, Kochia (kochia (Kochia scoparia); [6]): 5
Plant response rating, Kochia (kochia (Kochia scoparia); [7]): 10
Plant response rating, Kochia (kochia (Kochia scoparia); 62 g ai/ha, scale 0 to 100): 100
Plant response rating, Kochia (kochia (Kochia scoparia); 125 g ai/ha, scale 0 to 100): 100
Plant response rating, Arrowleaf Sida ([1]; Postemergence, 8 g ai/ha, scale 0 to 100): 80
Plant response rating, Arrowleaf Sida [1, 16]: 90
Plant response rating, Arrowleaf Sida [1, 17]: 90
Plant response rating, Arrowleaf Sida ([1]; Postemergence, 62 g ai/ha, scale 0 to 100): 95
Plant response rating, Arrowleaf Sida [1, 18]: 95
Plant response rating, Arrowleaf Sida ([1]; Preemergence, 8 g ai/ha, scale 0 to 100, 0 no effect, 100 complete control): 0
Plant response rating, Arrowleaf Sida [1, 8]: 0
Plant response rating, Arrowleaf Sida [1, 9]: 15
Plant response rating, Arrowleaf Sida [1, 10]: 15
Plant response rating, Arrowleaf Sida [1, 11]: 15
Plant response rating: Foxtail, Green [2, 13]: 80
Plant response rating: Foxtail, Green [2, 14]: 85
Plant response rating: Foxtail, Green [2, 15]: 95
Plant response rating, Foxtail, Green [2, 16]: 55
Plant response rating, Foxtail, Green [2, 8]: 60
Plant response rating, Foxtail, Green [2, 9]: 60
Plant response rating, Foxtail, Green [2, 10]: 75
Plant response rating, Foxtail, Green [2, 11]: 100
Plant response rating: Windgrass [3, 14]: 95
Plant response rating: Windgrass [3, 15]: 95
Plant response rating, Windgrass [3, 16]: 60
Plant response rating, Windgrass [3, 17]: 75
Plant response rating, Windgrass [3, 8]: 20
Plant response rating, Windgrass [3, 9]: 100
Plant response rating, Windgrass [3, 10]: 100
Plant response rating, Windgrass [3, 11]: 100
Plant response rating: Oilseed Rape [4, 13]: 100
Plant response rating: Oilseed Rape [4, 14]: 100
Plant response rating: Oilseed Rape [4, 15]: 100
Plant response rating, Oilseed Rape [4, 16]: 80
Plant response rating, Oilseed Rape [4, 8]: 5
Plant response rating, Oilseed Rape [4, 9]: 15
Plant response rating, Oilseed Rape [4, 10]: 100
Plant response rating, Oilseed Rape [4, 11]: 100
Plant response rating, Goosegrass [5, 19]: 40
Plant response rating, Goosegrass [5, 6]: 60
Plant response rating, Goosegrass [5, 7]: 75
Plant response rating, Goosegrass ([5]; 62 g ai/ha, scale 0 to 100): 100
Plant response rating, Goosegrass ([5]; 125 g ai/ha, scale 0 to 100): 100
